Measured values as given in PubChem BioAssay AID328 (DTP/NCI, 2004).
Where “and” joins values, the source holds several entries; their conditions need not be identical. Equal values may be shown once. Toxic doses and inconclusive results are not listed.

System: BDF1 mice, P388 leukemia ip, median survival T/C
Test: NCI In Vivo Anticancer Drug Screen. Data for tumor model P388 Leukemia (intraperitoneal) in B6D2F1 (BDF1) mice
Settings: endpoint: median survival time, higher = longer survival
Method in brief: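 Survival ratio, drug arm over vehicle arm, in mice with a transplanted tumour.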

[1] = dose: 50.0 mg/kg/injection, schedule: Q01DX009 (ip), vehicle: saline with Tween-80
[2] = dose: 50.0 mg/kg/injection, schedule: Q01DX009 (ip), vehicle: saline
[3] = dose: 100.0 mg/kg/injection, schedule: Q01DX009 (ip), vehicle: saline
[4] = dose: 50.0 mg/kg/injection, schedule: Q04DX003 (ip), vehicle: saline with Tween-80
[5] = dose: 100.0 mg/kg/injection, schedule: Q04DX003 (ip), vehicle: saline with Tween-80
[6] = dose: 200.0 mg/kg/injection, schedule: Q01DX009 (ip), vehicle: saline with Tween-80
[7] = dose: 200.0 mg/kg/injection, schedule: Q04DX003 (ip), vehicle: saline with Tween-80
[8] = dose: 400.0 mg/kg/injection, schedule: Q04DX003 (ip), vehicle: saline with Tween-80
[9] = dose: 264.0 mg/kg/injection, schedule: Q04DX003 (ip), vehicle: saline with Tween-80
[10] = dose: 50.0 mg/kg/injection, schedule: Q01DX009 (ip), vehicle: Klucel (hydroxypropylcellulose) (HPC)
[11] = dose: 100.0 mg/kg/injection, schedule: Q01DX009 (ip), vehicle: Klucel (hydroxypropylcellulose) (HPC)
[12] = dose: 200.0 mg/kg/injection, schedule: Q01DX009 (ip), vehicle: Klucel (hydroxypropylcellulose) (HPC)

COc1cc2cc(c1Cl)NC(=O)CC(OC(=O)C(C)N(C)C(=O)C1(C)CC1C)C1(C)OC1C(C)C1CC(O)(NC(=O)O1)C(OC)C=C/C=C(\C)C2 (centres undefined)
T/C (dose: 0.1 micrograms/kg/injection, schedule: Q01DX009 (ip), vehicle: saline + alcohol): 115 % of control
T/C (dose: 0.2 micrograms/kg/injection, schedule: Q01DX009 (ip), vehicle: saline + alcohol): 165 % of control
T/C (dose: 0.4 micrograms/kg/injection, schedule: Q01DX009 (ip), vehicle: saline + alcohol): 165 % of control
T/C (dose: 0.8 micrograms/kg/injection, schedule: Q01DX009 (ip), vehicle: saline + alcohol): 155 % of control
T/C (dose: 1.6 micrograms/kg/injection, schedule: Q01DX009 (ip), vehicle: saline + alcohol): 167 % of control and 175 % of control
T/C (dose: 3.1 micrograms/kg/injection, schedule: Q01DX009 (ip), vehicle: saline + alcohol): 184 % of control and 190 % of control
T/C (dose: 6.2 micrograms/kg/injection, schedule: Q01DX009 (ip), vehicle: saline + alcohol): 233 % of control and 300 % of control
T/C (dose: 12.5 micrograms/kg/injection, schedule: Q01DX009 (ip), vehicle: saline + alcohol): 184 % of control and 200 % of control
T/C (dose: 25.0 micrograms/kg/injection, schedule: Q01DX009 (ip), vehicle: saline + alcohol): 87 % of control and 90 % of control

CC(C)(C)OOC(=O)c1ccccc1O
T/C (dose: 12.5 mg/kg/injection, schedule: Q04DX003 (ip), vehicle: other): 102 % of control
T/C (dose: 25.0 mg/kg/injection, schedule: Q04DX003 (ip), vehicle: other): 101 % of control
T/C [1]: 122 % of control
T/C (dose: 50.0 mg/kg/injection, schedule: Q04DX003 (ip), vehicle: other): 101 % of control
T/C (dose: 100.0 mg/kg/injection, schedule: Q04DX003 (ip), vehicle: other): 118 % of control

O=c1c(Br)cccc(CN2CCOCC2)c1O
T/C (dose: 12.5 mg/kg/injection, schedule: Q04DX002 (ip), vehicle: saline with Tween-80): 101 % of control
T/C (dose: 25.0 mg/kg/injection, schedule: Q04DX002 (ip), vehicle: saline with Tween-80): 96 % of control
T/C (dose: 50.0 mg/kg/injection, schedule: Q04DX002 (ip), vehicle: saline with Tween-80): 101 % of control and 106 % of control

[Cl][Hg][CH2]CC1CC=CCC1 (centres undefined)
T/C (dose: 6.25 mg/kg/injection, schedule: Q01DX009 (ip), vehicle: saline with Tween-80): 113 % of control
T/C (dose: 6.25 mg/kg/injection, schedule: Q04DX003 (ip), vehicle: saline sonified): 104 % of control
T/C (dose: 12.5 mg/kg/injection, schedule: Q01DX009 (ip), vehicle: saline with Tween-80): 117 % of control
T/C (dose: 12.5 mg/kg/injection, schedule: Q04DX003 (ip), vehicle: saline sonified): 122 % of control
T/C (dose: 25.0 mg/kg/injection, schedule: Q04DX003 (ip), vehicle: saline sonified): 118 % of control

CCOC(=O)c1cnc(C)[nH]c1=O
T/C (dose: 25.0 mg/kg/injection, schedule: Q01DX009 (ip), vehicle: saline): 113 % of control
T/C [2]: 118 % of control
T/C (dose: 50.0 mg/kg/injection, schedule: Q04DX003 (ip), vehicle: saline): 100 % of control
T/C [3]: 100 % of control
T/C (dose: 100.0 mg/kg/injection, schedule: Q04DX003 (ip), vehicle: saline): 104 % of control
T/C (dose: 200.0 mg/kg/injection, schedule: Q04DX003 (ip), vehicle: saline): 86 % of control

C=CCN(C)/N=N/c1[nH]ncc1C(N)=O
T/C [1]: 104 % of control
T/C [4]: 104 % of control
T/C [5]: 109 % of control
T/C [6]: 87 % of control
T/C [7]: 109 % of control

COc1ccccc1NC(N)=O
T/C [5]: 105 % of control
T/C [7]: 105 % of control
T/C [8]: 100 % of control

O=c1c2ccccc2sc2c(CO)ccc(NCCN3CCCCC3)c12
T/C [4]: 101 % of control
T/C [5]: 101 % of control
T/C (dose: 176.0 mg/kg/injection, schedule: Q04DX003 (ip), vehicle: saline with Tween-80): 115 % of control
T/C [7]: 110 % of control
T/C [9]: 123 % of control
T/C (dose: 600.0 mg/kg/injection, schedule: Q04DX003 (ip), vehicle: saline with Tween-80): 180 % of control

CC[C@H](CC[C@@H](C)[C@H]1CC[C@H]2[C@@H]3CC[C@H]4C[C@@H](O)CC[C@]4(C)[C@H]3CC[C@]12C)C(C)C
T/C [5]: 100 % of control
T/C [6]: 95 % of control
T/C (dose: 400.0 mg/kg/injection, schedule: Q01DX009 (ip), vehicle: saline with Tween-80): 100 % of control
T/C [8]: 86 % of control

CN(C)C=Nc1cc(Cl)c(Cl)cc1Cl
T/C [2]: 100 % of control
T/C [3]: 110 % of control
T/C (dose: 200.0 mg/kg/injection, schedule: Q01DX009 (ip), vehicle: saline): 111 % of control

CCCCCOC(=O)c1ccc(OP(=O)(N(C)C)N(C)C)cc1
T/C [1]: 116 % of control
T/C (dose: 100.0 mg/kg/injection, schedule: Q01DX009 (ip), vehicle: saline with Tween-80): 100 % of control

Cc1cc2nc3c(=O)[nH]c(=O)nc-3n(CCOC(=O)CCC(=O)O)c2cc1C
T/C (dose: 50.0 mg/kg/injection, schedule: Q01DX009 (ip), vehicle: saline sonified): 100 % of control
T/C (dose: 100.0 mg/kg/injection, schedule: Q01DX009 (ip), vehicle: saline sonified): 100 % of control
T/C (dose: 200.0 mg/kg/injection, schedule: Q01DX009 (ip), vehicle: saline sonified): 118 % of control

C=C(C)C(=O)O[C@H]1CC2=C[C@@H](C[C@@]3(C)O[C@@H]3[C@H]3OC(=O)C(=C)[C@@H]31)OC2=O
T/C (dose: 2.2 mg/kg/injection, schedule: Q01DX010 (ip), vehicle: carboxymethylcellulose (CMC)): 113 % of control
T/C (dose: 2.5 mg/kg/injection, schedule: Q01DX009 (ip), vehicle: saline + alcohol): 109 % of control
T/C (dose: 3.3 mg/kg/injection, schedule: Q01DX010 (ip), vehicle: carboxymethylcellulose (CMC)): 118 % of control
T/C (dose: 5.0 mg/kg/injection, schedule: Q01DX010 (ip), vehicle: carboxymethylcellulose (CMC)): 113 % of control
T/C (dose: 7.5 mg/kg/injection, schedule: Q01DX010 (ip), vehicle: carboxymethylcellulose (CMC)): 152 % of control
T/C (dose: 7.5 mg/kg/injection, schedule: Q01DX010 (ip), vehicle: saline): 118 % of control
T/C (dose: 10.0 mg/kg/injection, schedule: Q01DX009 (ip), vehicle: saline): 120 % of control
T/C (dose: 15.0 mg/kg/injection, schedule: Q01DX010 (ip), vehicle: carboxymethylcellulose (CMC)): 157 % of control
T/C (dose: 15.0 mg/kg/injection, schedule: Q01DX010 (ip), vehicle: saline): 109 % of control
T/C (dose: 20.0 mg/kg/injection, schedule: Q01DX009 (ip), vehicle: saline + alcohol): 122 % of control
T/C (dose: 30.0 mg/kg/injection, schedule: Q01DX010 (ip), vehicle: carboxymethylcellulose (CMC)): 115 % of control
T/C (dose: 30.0 mg/kg/injection, schedule: Q01DX010 (ip), vehicle: saline): 118 % of control
T/C (dose: 40.0 mg/kg/injection, schedule: Q01DX009 (ip), vehicle: saline): 160 % of control
T/C (dose: 60.0 mg/kg/injection, schedule: Q01DX010 (ip), vehicle: saline): 90 % of control

O=C(SCC(NSc1ccccc1[N+](=O)[O-])C(=O)O)c1ccccc1 (centres undefined)
T/C (dose: 12.0 mg/kg/injection, schedule: Q01DX009 (ip), vehicle: Klucel (hydroxypropylcellulose) (HPC)): 105 % of control
T/C (dose: 25.0 mg/kg/injection, schedule: Q01DX009 (ip), vehicle: Klucel (hydroxypropylcellulose) (HPC)): 115 % of control
T/C [10]: 115 % of control
T/C [11]: 110 % of control
T/C [12]: 105 % of control

O=C(CC(NC(=O)OCc1ccccc1)C(=O)O)OCc1ccccc1 (centres undefined)
T/C [10]: 122 % of control
T/C [11]: 111 % of control
T/C [5]: 104 % of control
T/C [12]: 111 % of control
T/C [7]: 100 % of control
T/C [9]: 100 % of control
T/C (dose: 400.0 mg/kg/injection, schedule: Q01DX009 (ip), vehicle: Klucel (hydroxypropylcellulose) (HPC)): 94 % of control
T/C [8]: 100 % of control and 109 % of control

COC(=O)c1c([N+](=O)[O-])cccc1[N+](=O)[O-]
T/C (dose: 50.0 mg/kg/injection, schedule: Q01DX005 (ip), vehicle: saline with Tween-80): 97 % of control
T/C (dose: 100.0 mg/kg/injection, schedule: Q01DX005 (ip), vehicle: saline with Tween-80): 97 % of control
T/C (dose: 200.0 mg/kg/injection, schedule: Q01DX005 (ip), vehicle: saline with Tween-80): 94 % of control
